Experimental data published in patent publication US9334272B2, “Derivatives of purinic and pyrimidinic antiviral agents and use thereof as potent anticancer agents” (Ramot at Tel-Aviv University Ltd., priority 2007, dated 2016).

Legend:
U-251 cells [1] = test: Cell cycle analysis (propidium iodide flow cytometry), U-251 cells; assay type: cell-based, human
Description: Cells (4×10^5) were seeded in 35 mm culture dishes and after 24 hours were starved in medium without serum for an additional 24 hours, and then treated with the drug for an additional 24 hours. The cells were then trypsinized to a single cell suspension in PBS, washed, and resuspended in PBS at a concentration of 10^6 cells/mL. The cells were fixed with 70% ethanol for 30 minutes at 4° C., centrifuged and resuspended in 1 ml PBS containing 0.1% Tween 20 and 0.05% bovine serum albumin (BSA). RNase free of DNase was added, and the cell suspension (10^6 cells) was incubated at […] for 30 minutes. The cell suspension was then chilled on ice to a temperature in the range of 2 to 8° C. Propidium iodide (50 μg/mL) was added to the cell suspension, which was than kept in the dark. Red fluorescence (>630 nm) was analyzed on the flow cytometer.

primary rat astrocytes = settings: 50 μM, 24 hours
Description: Brains were removed from neonatal rats, and the cerebral cortex was dissected and minced. The cells were dissociated by vigorous shaking in DMEM supplemented with 20% FCS, and cells from 3 brains were seeded in 20 mL of the medium. After one week, the serum concentration was reduced to 10%.
Cells were seeded in six-well plates (10^5 cells/well) for 24 hours and were then treated as specified, trypsinized, washed with PBS, double-stained with annexin V-FITC (fluorescein isothiocyanate) and propidium iodide, according to the manufacturer's instructions and subjected to flow cytometry analysis (FACScalibur cytometer, Becton Dickinson).

U-251 cells [2] = test: Hoechst viability assay, U-251 glioma cells; assay type: cell-based, human
Description: (§1) Cells (in quadruplicate) at the specified density were suspended in 200 μL medium supplemented with 10% FCS seeded in 96-well plates for 24 hours, then exposed to the drugs for 72 hours. The viability of the cells was determined by Hoechst fluorescent assay as described by Nudelman et al., 2005. Leukemic cell viability after 72 hours of treatment was determined by an MTT (3-(4,5-dimethylthiazol-2-yl)-2,5-diphenyltetrazolium bromide) assay as described by Levovich et al., 2007.
(§2) IC50 values were determined by linear regression of the percentage of survival following drug titration.

4T1 cells = test: Hoechst viability assay, 4T1 breast carcinoma cells (Dox combination); assay type: cell-based, murine; settings: Mus musculus, 72 hours, 3 experiments
Description: as §1, §2
The combination index for drug interaction was calculated by Chou's Median Effect Analysis (MEA) [Chou, 2006]. The combination index (CI) was defined as CI=D1/(DM)1+D2/(DM)2, where D1 and D2 are the doses of drug 1 and drug 2, respectively, (DM)1 and (DM)2 are the doses of drug 1 and drug 2 and their mixture (in a specified ratio) required to produce a median effect, e.g., IC50. CI<1, =1 or >1 indicates synergism, additive effect, and antagonism respectively.

U-251 cells [3] = test: Apoptosis/cell death by annexin V-FITC and propidium iodide FACS, U-251 cells; assay type: cell-based
HL-60 cells = test: MTT viability assay, HL-60 leukemic cells; assay type: cell-based, human
Description: as §1, §2

acetylated histone H4 = test: In vivo histone H4 acetylation in 4T1 tumors (Western blot); set-up: species or system mice; settings: 100 mg/kg each, 4 hours after treatment, vs vehicle
Description: For the determination of in vitro histone acetylation, 2.5-3×10^6 cells, seeded in 100 mm culture dishes, were supplemented with RPMI medium containing 10% heat inactivated FCS and were treated with the drugs the following day. At the specified times post-treatment, the cells were removed with a rubber policeman, centrifuged, washed, lysed with lysis buffer (PBS, Nonidet® NP-40 1%, sodium deoxycholate 0.5%, sodium dodecyl sulfate (SDS) 0.1%, 1 mM phenylmethylsulfonyl fluoride (PMSF), 1 mM sodium orthovanadate, and 1 μM each of leupeptin and pepstatin) and centrifuged at 10,000 g for 10 minutes at 4° C. […] The extract was then lyophilized, and protein concentration was determined with a BCA kit (Pierce, USA). […] The fold increase of acetylated histones was determined by the ratio of band intensities of treated and untreated cells or mice, normalized to loading control (total histone H3).
Cell lysates or acid extracted histones were solubilized in a concentrated (×4) loading buffer (62.5 mM Tris-HCl, pH 6.8, 1% SDS, 10% glycerol v/v, 1% dithiothreitol (DTT) and 0.1 mg/ml bromophenol blue). […] The membrane was exposed for 5 minutes to Chemiluminescence BioMax light film (Kodak, USA) and the intensity of the bands was measured with a VersaDoc instrument with a Quantityl program (Bio-Rad, USA). […]

22RV1 cells = test: Hoechst viability assay, 22RV1 prostate carcinoma cells; assay type: cell-based, human
Description: as §1, §2

ICR mice = test: Acute toxicity assay in mice; assay type: in vivo; settings: 2 weeks
Excerpt: (§3) Male ICR mice, 8 weeks old (Harlan, Israel) were acclimated for 10 days before administration of the tested compounds. The animals were monitored for two weeks and weighed three times per week.

[4] = Acute toxicity assay in mice; assay type: in vivo; settings: male, mouse, in vivo; single per os dose, ICR mice
Excerpt: as §3

U-251 cells [5] = test: Mitochondrial membrane potential (JC-1 staining), U-251 cells; assay type: cell-based, human; settings: 60 μM, 24 hour treatment
[6] = Homo sapiens, 72 hours, Hoechst, read-out: IC50

## CCCC(CCC)C(=O)Nc1nc2c(ncn2COCCOC(=O)C(CCC)CCC)c(=O)[nH]1 [Compound 6, N-valproyl-9-(2-valproyloxy)ethoxymethylguanine]
U-251 cells [1]; 25 μM, 24 hours
  Percentage of cells in G0-G1 stage: 48.5%
  Percentage of cells in G2-M stage: 33.9%
  Percentage of cells in S stage: 17.5%
U-251 cells [1]; 50 μM, 24 hours
  Percentage of cells in G0-G1 stage: 77.1%
  Percentage of cells in G2-M stage: 13.3%
  Percentage of cells in S stage: 9.5%
U-251 cells [1]; 25-50 μM vs 1 mM
  cell-cycle arresting concentration, fold lower than acyclovir and valproic acid: at least 20 fold
U-251 cells [1]; 25-50 μM, 24 hours
  phase of cell-cycle arrest: G0-G1 phase
Primary rat astrocytes
  viability of primary culture of astrocytes: did not affect the viability
U-251 cells [2]
  activity relative to acyclovir: > 100 fold
U-251 cells [2]; [6]
  IC50: 32 ± 2 µM
4T1 cells
  IC50: 33.7 µM
U-251 cells [3]; Homo sapiens, U-251 glioblastoma cells, 50 μM, 24 hours (untreated 9%)
  mortality at 50 µM: 29%
U-251 cells [3]; U-251 cells, 24 hours
  percentage of apoptotic cells: increased the percentage of apoptotic cells in a dose dependent manner
HL-60 cells
  IC50 fold lower than that of VA: over 20 fold
HL-60 cells; acyclovir:VA 1:2
  IC50 fold lower than that of the mixture of VA and acyclovir: over 50 fold
Acetylated histone H4
  levels of acetylated H4 in tumors: significantly higher levels of acetylated H4
22RV1 cells
  activity relative to acyclovir: > 100 fold
22RV1 cells; [6]
  IC50: 23.2 ± 1.9 µM
ICR mice; single per os dose 150 mg/kg
  Survival (%): 100%
ICR mice; single per os dose 200 mg/kg
  Survival (%): 100%
ICR mice; single per os dose 250 mg/kg
  Survival (%): 91.8%
ICR mice; single per os dose 500 mg/kg
  Survival (%): 100%
ICR mice; single per os dose 750 mg/kg
  Survival (%): 100%
[4]
  LD50 at 2 weeks: > 750 mg/kg
U-251 cells [5]
  mitochondrial membrane potential: increased the number of mitochondria with reduced membrane potentials
